Consider 3 molecules from article PMC4469479 (Nature, 2015).

For one experiment, the target named is dDATmfc sub^B (Drosophila melanogaster, UniProt Q7K4Y6, D121G/DEL162-202/DEL602-606/INS607VPRG/L415A/S426M/V74A). It counts as binding.
Experiment [1] has as its target T1, dDATmfc (Drosophila melanogaster, UniProt Q7K4Y6, DEL162-202/DEL602-606/INS607VPRG/L415A/V74A). The format is binding.
The target of experiment [2] is T1, dDATmfc. Particulars: HEK293S cells; 14C-DA 0.3–60 μM; s.e.m.

In the case of `NCCc1ccc(Cl)c(Cl)c1` [DCP, 3,4-dichlorophenethylamine], on dDATmfc sub^B, the affinity corresponds to a Ki of 0.267 ± 0.02 µM.

`COC(=O)[C@H]1[C@@H](OC(=O)c2ccccc2)C[C@@H]2CC[C@H]1N2C` [cocaine]: the affinity on dDATmfc [1] corresponds to a Ki of 33 ± 3 µM.

Regarding `NCCc1ccc(O)c(O)c1` [dopamine], the “Vmax of DA transport by dDATmfc” value at dDATmfc [2] is recorded as 2.4 ± 0.2 pmol/min/10^6 cells.

As usually defined, the Ki is the dissociation constant of the complex between target and ligand, obtained from inhibition or displacement. High values mean weaker binding, low ones tighter binding.
